From EP0185979A1, “A novel substance having anti-tumor activity, a microbiological process for the preparation thereof and its use as a medicament” (MICROBIAL CHEMISTRY RESEARCH FOUNDATION, priority 1984, dated 1986)
≈ marks a conversion by molar mass, not a printed value.

Tests used:
[1] = cytotoxicity compared with streptonigrin; details: comparison with streptonigrin, no data given
[2] = system: cultured mouse leukemia cell P388; assay: inhibition of growth of cultured cells; format: cell-based; details: read-out: median inhibition dose, ID50
Protocol: The anti-tumor activity of substance MG883-12F2 can be confirmed by measuring its ability to inhibit the growth of known cultured cells. For example, the median inhibition dose, ID50, of substance MG883-12F2 against cultured mouse leukemia cell P388 was 0.5 mg/ml.

[3] = anti-tumor activity compared with streptonigrin; details: comparison with streptonigrin, no data given

SMILES: COc1ccc(-c2c(C)c(C(=O)O)nc(-c3ccc4c(n3)C(=O)C(N)=C(O)C4=O)c2N)c(O)c1OC [substance MG883-12F2]
- cytotoxicity [1]: lower cytotoxicity
- IC50 [2]: 500 µg/mL (≈ 1020 µM)
- anti-tumor activity [3]: slightly inferior to streptonigrin
